Common to all, as to format: in vivo
The test system of experiment [1] is Ctenocephalides felis. The experiment in a line: Ctenocephalides felis in vitro contact test with adult cat fleas. The note with it: application rate 5 μg/cm^2 (500 g/ha); after 48 h; fleas dead or moribund. Summed up: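 Adult Ctenocephalides felis (5-10 per tube) were held 48 h at room temperature in tubes whose inner walls carried dried active ingredient, e.g. 5 μg/cm^2 from a 900 ppm acetone coating. Percent efficacy reflects fleas motionless or uncoordinated after being knocked to the tube base.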

In experiment [2] the test system is Rhipicephalus sanguineus. The experiment in a line: Rhipicephalus sanguineus in vitro contact test with adult brown dog ticks. The conditions noted are these: application rate 5 μg/cm^2 (500 g/ha); after 48 h; ticks dead or moribund. Summed up: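 Test tubes (25 ml) were coated by dissolving active ingredient in acetone p.a., diluting to the required concentration, and spreading 250 μl over the inner walls and base on an orbital shaker at 30 rpm for 2 h. Once dry, 5-10 adult Rhipicephalus sanguineus were added, and tubes were capped with perforated lids and kept horizontal in darkness at room temperature. At 48 h, ticks were knocked down and heated at 45-50° C. for up to 5 min. Those unable to climb away were counted dead or moribund, and efficacy ran from 0% to 100%.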

Experiment [3] has as its system Amblyomma hebraeum. The experiment in a line: Amblyomma hebraeum test (tick nymphs, immersion). The note with it: application rate 100 ppm; tick nymphs immersed one minute; after 42 days. As to the method:
(§1) Solvent: dimethyl sulphoxide
To produce an appropriate active ingredient formulation, 10 mg of active ingredient are mixed with 0.5 ml of dimethyl sulphoxide, and the concentrate is diluted with water to the desired concentration.
Tick nymphs (Amblyomma hebraeum) are placed into perforated plastic cups and immersed in the desired concentration for one minute. The ticks are transferred on filter paper into a Petri dish and stored in a climate-controlled cabinet.
After 42 days, the kill in % is determined. 100% means that all of the ticks have been killed; 0% means that none of the ticks have been killed.

The subject of experiment [4] is Boophilus microplus Parkhurst strain, SP-resistant. Kind of experiment: Boophilus microplus dip test. The conditions noted are these: application rate 100 ppm, assessed after 7 days. As to the method:
Boophilus microplus—Dip Test
Test animals: cattle ticks (Boophilus microplus) Parkhurst strain, SP-resistant
as §1
10 mg of active ingredient are dissolved in 0.5 ml of dimethyl sulphoxide. For the purpose of producing a suitable formulation, the active ingredient solution is diluted with water to the concentration desired in each case.
This active ingredient formulation is pipetted into tubes. 8-10 adult engorged female cattle ticks (Boophilus microplus) are transferred into a further tube with holes. The tube is immersed into the active ingredient formulation, and all the ticks are completely wetted. After the liquid has run out, the ticks are transferred on filter discs into plastic dishes and stored in a climate-controlled room.
Efficacy is assessed after 7 days by laying of fertile eggs. Eggs which are not visibly fertile are stored in a climate-controlled cabinet until the larvae hatch after about 42 days. An efficacy of 100% means that none of the ticks has laid any fertile eggs; 0% means that all the eggs are fertile.

Experiment [5] has as its system Boophilus microplus. Kind of experiment: Boophilus microplus injection test. The note with it: application rate 20 μg/animal; injection into abdomen; assessed after 7 days. Summed up: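 Read-out is % efficacy from fertile egg laying at 7 days: 100% means no tick laid fertile eggs, 0% means all eggs fertile. Each of 5 engorged adult females received 1 μl of DMSO test solution injected abdominally.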

The subject of experiment [6] is Ctenocephalides felis. Kind of experiment: Ctenocephalides felis oral test. The note with it: application rate 100 ppm in citrated cattle blood; after 2 days. Summed up: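 DMSO stock, diluted in citrated cattle blood; ~20 unfed adult fleas feed through parafilm; % kill read at day 2 (0% = none killed).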
Experiment [7] deals with Lucilia cuprina. The experiment in a line: Lucilia cuprina test. The note with it: application rate 100 ppm; L1 larvae; after 2 days. A digest of the protocol:
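Mortality read at 2 days as percent larvae killed (100% = all, 0% = none). Test used roughly 20 first-instar larvae on minced horsemeat dosed with water-diluted DMSO formulation of compound.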

Experiment [8] has as its system Musca domestica. Kind of experiment: Musca domestica test. The conditions noted are these: application rate 100 ppm; adult houseflies; after 2 days. Summed up: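 10 adult flies per vessel; sugar-solution sponge dosed with active ingredient formulation (DMSO concentrate diluted in water to desired concentration). Read-out: % kill at 2 days.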
For experiment [9], the system named is Phaedon cochleariae. The experiment in a line: Phaedon cochleariae spray test. The conditions noted are these: application rate 100 g/ha; larvae; after 7 days. A digest of the protocol:
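Mortality of Phaedon larvae, in %, was read 7 days after release onto sprayed, dried Brassica pekinensis leaf discs. Test dilutions were prepared in water with 1000 ppm emulsifier. A score of 0% means no larvae died and 100% means all were killed.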

In experiment [10] the test system is Spodoptera frugiperda. Kind of experiment: Spodoptera frugiperda spray test. The conditions noted are these: application rate 100 g/ha; caterpillars; after 7 days. Summed up: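 Percent kill of armyworm caterpillars was scored 7 days after they were placed on dried, sprayed Zea mays leaf discs. Spray solutions were made by dissolving active ingredient in solvent and diluting with 1000 ppm emulsifier water.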

The test system of experiment [11] is Tetranychus urticae. The experiment in a line: Tetranychus urticae spray test, OP-resistant. The note with it: application rate 100 g/ha; after 6 days. Summed up:
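Percent kill is assessed 6 days after spraying infested Phaseolus vulgaris leaf discs, with all mite stages present. Compound is applied as a solvent/emulsifier aqueous formulation at the desired concentration.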

In experiment [12] the test system is Myzus persicae. Kind of experiment: Myzus persicae spray test. The note with it: application rate 100 g/ha; after 6 days. A digest of the protocol: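 Efficacy, as % of aphids killed (0-100%), was scored 6 days after spraying. Test solutions were made in solvent diluted with water containing 1000 ppm emulsifier. They were sprayed onto Brassica pekinensis leaf discs carrying mixed-stage Myzus persicae.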

Results on six molecules are retold here after patent US10273226B2, “Pyrazolyl-heteroarylamides as pesticides” (Bayer Animal Health GmbH, priority 2014, dated 2019).

Molecules are shown by their SMILES.

As for `Cn1nc(C(F)(F)C(F)(F)F)c(C(F)(F)F)c1-n1cc(-c2ccc(Cl)c(NC(=O)c3ccncc3)c2)cn1` [Example 1-024], the efficacy in [1], in [2], in experiment [9], in experiment [10] and in [11] was 100% throughout. The “efficacy (kill in %)” value in [3], in [6], in experiment [7] and in experiment [8] was 100% in each case. Further, the “efficacy (laying of fertile eggs)” value in [4] and in experiment [5] was 100% in each case.

`Cn1nc(C(F)(F)C(F)(F)F)c(C(F)(F)F)c1-n1cc(-c2ccc(F)c(NC(=O)c3ccncc3)c2)cn1` [Example 1-025]: the efficacy in experiment [1], in experiment [2], in [12], in experiment [9], in experiment [10] and in [11] was 100% in each case. For the same molecule, the “efficacy (kill in %)” value in experiment [3], in [6], in experiment [7] and in experiment [8] was 100% in each case. Further, the “efficacy (laying of fertile eggs)” value in experiment [4] and in [5] was 100% each time.

`Cn1nc(C(F)(F)C(F)(F)F)c(C(F)(F)F)c1-n1cc(-c2ccc(F)c(NC(=O)c3ccc(C#N)cc3)c2)cn1` [Example 1-088]: the efficacy in [1], in experiment [2], in experiment [9], in experiment [10] and in experiment [11] was 100% each time. In addition, the “efficacy (kill in %)” value in experiment [3], in experiment [6] and in [7] was 100% throughout. Also, the “efficacy (laying of fertile eggs)” value in experiment [4] and in experiment [5] was 100% in each case.

Take `Cc1cc(C(=O)Nc2cc(-c3cnn(-c4c(C(F)(F)F)c(C(F)(F)C(F)(F)F)nn4C)c3)ccc2F)ccn1` [Example 1-087]: the efficacy is given as 100% in experiment [1]; 80% in experiment [2]; 90% in experiment [12]; 100% in [9]; 100% in [10]; 100% in experiment [11]. Further, the “efficacy (kill in %)” value in experiment [3] amounted to 90%; in [6] it was 100%; in [7] it was 100%; in experiment [8] it was 100%. For the same molecule, the “efficacy (laying of fertile eggs)” value in experiment [4] and in [5] was 100% in each case.

Regarding `Cc1ccc(-c2cnn(-c3c(C(F)(F)F)c(C(F)(F)C(F)(F)F)nn3C)c2)cc1NC(=O)c1ccncc1` [Example 1-040], the efficacy in experiment [1], in [2], in experiment [12], in experiment [9], in experiment [10] and in [11] was 100% each time. The “efficacy (kill in %)” value in [3], in [6], in experiment [7] and in experiment [8] was 100% in each case. Also, the “efficacy (laying of fertile eggs)” value in [4] and in experiment [5] was 100% each time.

As for `Cn1nc(C(F)(F)C(F)(F)F)c(C(F)(F)F)c1-n1cc(-c2ccc(F)c(NC(=O)c3ccsc3)c2)cn1` [Example 1-041], the efficacy in experiment [1], in [2], in [12], in experiment [9], in experiment [10] and in experiment [11] was 100% in each case. Also, the “efficacy (kill in %)” value in [3], in [6] and in experiment [7] was 100% each time. The “efficacy (laying of fertile eggs)” value in experiment [4] and in [5] was 100% each time.
